Like-named read-outs stand apart in the source and are kept apart here.
Experiments:
acetylcholinesterase [1] = molecular target: T1, acetylcholinesterase (Homo sapiens, UniProt P22303); assay: Kinetic study of acetylcholinesterase inhibition (Lineweaver-Burk plots and replots); format: biochemical; settings: for type of acetylcholinesterase inhibition: Lineweaver-Burk plots
T1 construct: purchased Sigma-Aldrich (St. Louis, MO, USA)
Experimental: Lineweaver–Burk and Dixon plots were used for the determination of the type of inhibition and inhibition constants (Ki value) of these alkaloids. […] The Ki value was estimated from the replots of the slope of the individual Lineweaver–Burk plots versus the inhibitor concentrations (Figure 5B). […] The type of acetylcholinesterase inhibition and Ki value was determined for palmatine by the same method.

[2] = test system: human skin fibroblasts (WS1 cell line); assay: MTT cell viability, skin fibroblasts WS1; format: cell-based
Experimental: (§1) The MTT assay, which measures the activity of mitochondrial metabolism, was used for the determination of the influence of alkaloid standards on cancer cell viability.
(§2) For the evaluation of the effect of Berberis species, extracts against normal human skin fibroblast cells (WS1) were used. Both cell lines were received from the American Type Culture Collection (ATCC; Manassas, VA, USA). A375 and WS1 cells were cultured in Dulbecco’s Modified Eagle’s Medium (DMEM) (Sigma Aldrich, St. Louis, MO, USA). The procedure used in investigations of cell viability was described previously. Inactivated fetal bovine serum, penicillin, and streptomycin were added to cells maintained in a CO2 atmosphere at 37 °C. The suspension of cells was applied to a 96-well plate and incubated for 24 h. Next, the medium was removed from the wells, and Berberis species extracts or alkaloid standards were added to the wells. After incubation, MTT working solution was added to each well, and the plate was again incubated for 3 h. Subsequently, an SDS solution was added, and the concentration of the dissolved formazan was measured (for details, see Section S3. Procedure for investigation of cell viability). For the calculation of IC50 values obtained for the plant extracts and alkaloid standards, the IC50 calculator (https://www.aatbio.com/tools/ic50-calculator, accessed on 16 January 2024) was used.
S1. […]

acetylcholinesterase [3] = molecular target: T1, acetylcholinesterase; settings: previously reported; cited from earlier work
[4] = ref PubChem; cited from earlier work
[5] = test system: human melanoma cell line (A375); assay: MTT cell viability, melanoma cell line A375; format: cell-based; settings: 24 h incubation
Experimental: as §1, §2
S1. […]

acetylcholinesterase [6] = molecular target: T1, acetylcholinesterase; format: biochemical; settings: alkaloid standards; 15 min at 37 °C, pH 7.8
Experimental: (§3) All experiments were repeated three times.
S1. Samples preparation for determination of acetylcholinesterase inhibitory activity A stock solutions of reagents were prepared by dissolving of acetylcholinesterase at con-centrations 200 U/mL or 2 U/mL, acetylthiocholine iodide at concentration 0.0125 M and 5′- dithiobis-(2-nitrobenzoic acid) at concentration 0.00167 M in phosphate buffer at pH 7.8.
Samples for determination of acetylcholinesterase inhibitory activity were obtained by mixing of 50 µL of acetylthiocholine iodide, 50 µL of 5′-dithiobis-(2-nitrobenzoic acid), 50 µL of […]
as §3
All experiments were performed in triplicates.

butyrylcholinesterase [7] = molecular target: T2, butyrylcholinesterase (Homo sapiens, UniProt P06276); assay: Butyrylcholinesterase inhibition, Ellman method with HPLC-DAD; format: biochemical; settings: alkaloid standards; 15 min at 37 °C, pH 7.8
T2 construct: purchased Sigma-Aldrich (St. Louis, MO, USA)
T2 sequence (P06276 29-602): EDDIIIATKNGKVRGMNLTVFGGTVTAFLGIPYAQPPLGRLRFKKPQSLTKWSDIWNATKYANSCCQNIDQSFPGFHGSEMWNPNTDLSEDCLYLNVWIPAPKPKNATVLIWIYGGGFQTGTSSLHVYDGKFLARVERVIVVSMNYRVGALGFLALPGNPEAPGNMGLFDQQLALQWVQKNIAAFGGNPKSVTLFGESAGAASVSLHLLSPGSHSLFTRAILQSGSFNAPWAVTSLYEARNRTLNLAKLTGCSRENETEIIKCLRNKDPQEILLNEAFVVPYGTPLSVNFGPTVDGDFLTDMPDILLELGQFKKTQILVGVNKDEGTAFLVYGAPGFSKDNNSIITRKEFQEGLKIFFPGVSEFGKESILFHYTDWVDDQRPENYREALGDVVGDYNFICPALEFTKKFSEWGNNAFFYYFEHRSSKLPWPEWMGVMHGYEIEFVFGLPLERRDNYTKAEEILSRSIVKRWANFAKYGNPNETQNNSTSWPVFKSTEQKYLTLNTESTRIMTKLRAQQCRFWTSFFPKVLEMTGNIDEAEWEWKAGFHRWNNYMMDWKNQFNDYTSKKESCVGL

butyrylcholinesterase [8] = molecular target: T2, butyrylcholinesterase; settings: cited from earlier work
acetylcholinesterase [9] = molecular target: T1, acetylcholinesterase; settings: cited from earlier work
butyrylcholinesterase [10] = molecular target: T2, butyrylcholinesterase; settings: read-out: IC50 butyrylcholinesterase; alkaloids isolated from Berberis vulgaris root bark; cited from earlier work
[11] = test system: leukemic (Jurkat, MOLT-4), colon (HT-29), cervix (HeLa), breast (MCF-7) cancer cells; settings: MOLT-4, HT-29, HeLa, read-out: IC50 values, proliferation and viability; cited from earlier work

T1 sequence (P22303 32-614, species assumed): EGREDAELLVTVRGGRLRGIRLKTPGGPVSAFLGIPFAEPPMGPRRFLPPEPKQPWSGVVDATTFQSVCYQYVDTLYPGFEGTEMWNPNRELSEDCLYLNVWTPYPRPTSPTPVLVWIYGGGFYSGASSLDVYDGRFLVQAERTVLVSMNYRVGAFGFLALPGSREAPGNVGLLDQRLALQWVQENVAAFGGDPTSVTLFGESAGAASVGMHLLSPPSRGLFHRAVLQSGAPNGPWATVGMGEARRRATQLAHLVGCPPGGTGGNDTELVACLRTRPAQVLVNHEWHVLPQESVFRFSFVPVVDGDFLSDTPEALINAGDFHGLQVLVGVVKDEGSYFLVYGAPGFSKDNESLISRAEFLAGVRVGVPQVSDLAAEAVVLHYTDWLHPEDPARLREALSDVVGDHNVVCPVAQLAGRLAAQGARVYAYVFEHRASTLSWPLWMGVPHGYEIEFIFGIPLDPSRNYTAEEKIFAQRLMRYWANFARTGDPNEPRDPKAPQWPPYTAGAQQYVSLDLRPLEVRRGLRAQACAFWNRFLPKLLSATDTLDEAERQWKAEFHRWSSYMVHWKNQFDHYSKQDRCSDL

Molecule | Hydrogen bond acceptor count [4] | Hydrogen bond donor count [4] | Log P [4] | Polar surface area [4] | other results
COc1ccc2cc3[n+](cc2c1OC)CCc1cc2c(cc1-3)OCO2 [Berberine, berberine] | 4 | 0 | 3.6 | 40.8 Å² | type of acetylcholinesterase inhibition (acetylcholinesterase [1]): noncompetitive; IC50 ([2]; Homo sapiens, WS1, 24 h, read-out: IC50 WS1): 95.3 µg/mL; mode of acetylcholinesterase inhibition (acetylcholinesterase [3]): non-competitive
COc1ccc2c(c[n+](C)c3c4cc5c(cc4ccc23)OCO5)c1OC [Chelerythrine, chelerythrine] | 4 | 0 | 4.6 | 40.8 Å² | –
N.N.[Cl][Pt][Cl] [Cisplatin, cisplatin] | – | – | – | – | IC50 A375 [5]: 23.8 µg/mL; IC50 WS1 ([2]; human skin fibroblast cell line WS1, MTT, 24 h incubation): 44.07 µg/mL
COc1cc2c(cc1OC)-c1cc3ccc(OC)c(OC)c3c[n+]1CC2 [Palmatine, palmatine] | 4 | 0 | 3.7 | 40.8 Å² | IC50 (acetylcholinesterase [6]): 29.2 ± 1.59 µM; IC50 Values Acetylcholinesterase (acetylcholinesterase [6]): 10.27 µg/mL; IC50 (butyrylcholinesterase [7]): 189 ± 42.5 µM; IC50 Values Butyrylcholinesterase (butyrylcholinesterase [7]): 66.74 µg/mL; type of acetylcholinesterase inhibition (acetylcholinesterase [1]): mixed-type; Ki (acetylcholinesterase [1]; replot of Lineweaver-Burk slopes vs inhibitor concentration, substrate acetylthiocholine iodide): 17 µM; IC50 butyrylcholinesterase (butyrylcholinesterase [8]): 116.7 µg/mL; IC50 acetylcholinesterase (acetylcholinesterase [9]): 7.4 µg/mL; mode of acetylcholinesterase inhibition (acetylcholinesterase [3]): mixed mode
CN1CCc2cc3c(cc2C(=O)Cc2ccc4c(c2C1)OCO4)OCO3 [Protopine, protopine] | 6 | 0 | 2.8 | 57.2 Å² | –
C[n+]1cc2c3c(ccc2c2ccc4cc5c(cc4c21)OCO5)OCO3 [Sanguinarine, sanguinarine] | 4 | 0 | 4.4 | 40.8 Å² | –
COc1cc2c3cc1Oc1c(O)c(OC)cc4c1[C@H](Cc1ccc(cc1)Oc1cc(ccc1O)C[C@H]3N(C)CC2)N(C)CC4 [aromoline] | – | – | – | – | IC50 (butyrylcholinesterase [10]): 0.82 µM
Bersavine | – | – | – | – | IC50 [11]: 8.1 to 11 µM
